Measurements taken from ChEMBL document CHEMBL6127034, “Design, synthesis and biological evaluation of a novel PAK1 degrader for the treatment of triple negative breast cancer” (Bioorg Med Chem, 2024).
Activity calls are given as the source filed them. No cut-off for these calls is given here.

Legend:
[1] = biological target: T1, Serine/threonine-protein kinase PAK 1 (Homo sapiens, UniProt Q13153); test: In vivo inhibition of PAK1 phosphorylation at S144 in human MDA-MB-231 cells xenografted in BALB/c mouse at 20 mg/kg, ip qd for 12 days by Western blot analysis; format: functional, organism-based; settings: time 12.0 day
T1 sequence (Q13153 whole entry): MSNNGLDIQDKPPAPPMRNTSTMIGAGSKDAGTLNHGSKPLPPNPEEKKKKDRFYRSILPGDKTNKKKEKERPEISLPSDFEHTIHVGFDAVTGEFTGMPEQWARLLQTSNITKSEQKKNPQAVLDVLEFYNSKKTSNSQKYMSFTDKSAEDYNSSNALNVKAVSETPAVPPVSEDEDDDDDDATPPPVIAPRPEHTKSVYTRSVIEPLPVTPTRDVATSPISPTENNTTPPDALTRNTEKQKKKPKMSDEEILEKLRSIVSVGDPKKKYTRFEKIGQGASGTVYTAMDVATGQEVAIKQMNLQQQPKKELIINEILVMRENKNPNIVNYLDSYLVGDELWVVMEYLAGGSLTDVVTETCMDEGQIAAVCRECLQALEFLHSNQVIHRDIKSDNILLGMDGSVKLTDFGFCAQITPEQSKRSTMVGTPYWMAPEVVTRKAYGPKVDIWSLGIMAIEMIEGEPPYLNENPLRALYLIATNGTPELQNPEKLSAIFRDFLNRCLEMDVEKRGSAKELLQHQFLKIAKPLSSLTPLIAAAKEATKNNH

MDA-MB-231 [2] = test: Antitumor activity against human MDA-MB-231 cells xenografted in BALB/c mouse assessed as reduction in tumor growth rate at 20 mg/kg, ip qd for 12 days; format: functional, organism-based; settings: time 12.0 day
MDA-MB-231 [3] = test: Induction of apoptosis in human MDA-MB-231 cells assessed as increase in cleaved PARP level at 2.5 to 10 uM incubated upto 48 hrs by Western blot analysis; format: functional, cell-based; settings: dose 2.5-10 µM
MDA-MB-231 [4] = test: Inhibition of cell migration in human MDA-MB-231 cells upto 10 uM incubated upto 48 hrs by wound healing assay; format: functional, cell-based
MDA-MB-231 [5] = test: Induction of apoptosis in human MDA-MB-231 cells xenografted in BALB/c mouse assessed as decrease in ERK1/2 phosphorylation at Thr202/Tyr204 at 20 mg/kg, ip qd for 12 days by Western blot analysis; format: functional, organism-based; settings: time 12.0 day
[6] = biological target: T1, Serine/threonine-protein kinase PAK 1; test: Inhibition of PAK1 in human MDA-MB-231 cells assessed as decrease in ERK1/2 phosphorylation at Thr202/Tyr204 incubated upto 48 hrs by Western blot analysis; format: cell-based
[7] = biological target: T2, von Hippel-Lindau disease tumor suppressor/Serine/threonine-protein kinase PAK 1 (Homo sapiens, UniProt Q13153+P40337); test: PROTAC activity at VHL/PAK1 in human MDA-MB-231 cells assessed as induction of protein degradation incubated for 48 hrs by Western blot analysis; format: cell-based
MDA-MB-231 [8] = test: Antiproliferative activity against human MDA-MB-231 cells assessed as decrease in Ki-67 expression at 5 uM incubated for 24 hrs by immunofluorescence based analysis; format: functional, cell-based
MDA-MB-231 [9] = test: Induction of apoptosis in human MDA-MB-231 cells assessed as necrotic cells at 2.5 to 10 uM incubated for 48 hrs by Annexin V-FITC/PI staining based flow cytometry (reference value: 1.08 %); format: functional; settings: dose 2.5-10 µM
[10] = Toxicity in BALB/c mouse xenografted with human MDA-MB-231 cells assessed as animal growth at 20 mg/kg, ip qd for 12 days; format: organism-based; settings: in vivo, 288 h, time 12 day
MDA-MB-231 [11] = test: Inhibition of cell migration in human MDA-MB-231 cells at 2.5 uM incubated upto 48 hrs by wound healing assay; format: functional, cell-based
[12] = biological target: T2, von Hippel-Lindau disease tumor suppressor/Serine/threonine-protein kinase PAK 1; test: PROTAC activity at VHL/PAK1 in human MDA-MB-231 cells assessed as induction of protein degradation at 0.1 uM incubated for 48 hrs by Western blot analysis relative to control; format: cell-based
Target sequence in this assay (Q13153 2-545 limits assumed): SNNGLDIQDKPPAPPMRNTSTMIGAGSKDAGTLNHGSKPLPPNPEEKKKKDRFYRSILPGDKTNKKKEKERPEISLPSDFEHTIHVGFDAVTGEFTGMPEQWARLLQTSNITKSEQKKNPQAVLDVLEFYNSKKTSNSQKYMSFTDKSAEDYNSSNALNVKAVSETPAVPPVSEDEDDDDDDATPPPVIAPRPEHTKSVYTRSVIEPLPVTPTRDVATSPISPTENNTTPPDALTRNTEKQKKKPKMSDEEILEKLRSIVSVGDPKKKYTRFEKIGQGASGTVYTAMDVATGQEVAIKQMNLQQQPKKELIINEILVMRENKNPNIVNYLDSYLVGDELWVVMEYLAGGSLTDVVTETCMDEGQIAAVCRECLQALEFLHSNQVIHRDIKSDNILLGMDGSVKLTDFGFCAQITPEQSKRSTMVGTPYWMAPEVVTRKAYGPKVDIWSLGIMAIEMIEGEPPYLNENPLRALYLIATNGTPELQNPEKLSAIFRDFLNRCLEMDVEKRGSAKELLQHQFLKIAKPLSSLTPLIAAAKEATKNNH
Target sequence in this assay (P40337 whole entry partner): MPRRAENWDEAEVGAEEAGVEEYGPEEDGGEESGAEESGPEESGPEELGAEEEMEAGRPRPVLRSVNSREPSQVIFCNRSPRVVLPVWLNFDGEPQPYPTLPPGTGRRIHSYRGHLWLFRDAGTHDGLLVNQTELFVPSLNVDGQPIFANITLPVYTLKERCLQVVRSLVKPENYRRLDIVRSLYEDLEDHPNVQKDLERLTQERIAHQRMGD

[13] = biological target: T1, Serine/threonine-protein kinase PAK 1; test: In vivo inhibition of PAK1 in human MDA-MB-231 cells xenografted in BALB/c mouse at 20 mg/kg, ip qd for 12 days by Western blot analysis; format: functional, organism-based; settings: time 12.0 day
[14] = biological target: Serine/threonine-protein kinase PAK 2 (Homo sapiens) (UniProt Q13177); test: Inhibition of PAK2 in human MDA-MB-231 cells incubated upto 48 hrs by Western blot analysis; format: cell-based
Chain of Serine/threonine-protein kinase PAK 2 (Homo sapiens) (Q13177 whole entry): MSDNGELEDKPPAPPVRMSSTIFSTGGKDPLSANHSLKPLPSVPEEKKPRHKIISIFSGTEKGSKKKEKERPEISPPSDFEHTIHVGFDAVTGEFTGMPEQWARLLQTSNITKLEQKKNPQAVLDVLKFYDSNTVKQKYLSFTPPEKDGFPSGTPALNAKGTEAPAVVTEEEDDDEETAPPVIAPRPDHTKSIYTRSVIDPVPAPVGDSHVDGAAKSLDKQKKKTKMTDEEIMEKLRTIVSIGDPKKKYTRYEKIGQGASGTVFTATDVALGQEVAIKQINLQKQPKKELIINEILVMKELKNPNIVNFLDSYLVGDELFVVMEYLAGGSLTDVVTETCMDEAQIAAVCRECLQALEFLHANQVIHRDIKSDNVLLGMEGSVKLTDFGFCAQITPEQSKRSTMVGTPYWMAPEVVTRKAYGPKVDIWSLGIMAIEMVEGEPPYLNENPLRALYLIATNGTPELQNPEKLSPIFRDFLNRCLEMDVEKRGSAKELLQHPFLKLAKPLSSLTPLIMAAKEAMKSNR

MDA-MB-231 [15] = test: Induction of apoptosis in human MDA-MB-231 cells assessed as necrotic cells at 2.5 to 10 uM incubated for 12 hrs by Annexin V-FITC/PI staining based flow cytometry (reference value: 1.08 %); format: functional; settings: dose 2.5-10 µM
MDA-MB-231 [16] = test: Induction of apoptosis in human MDA-MB-231 cells xenografted in BALB/c mouse assessed as decrease in MMP-2 at 20 mg/kg, ip qd for 12 days by Western blot analysis; format: functional, organism-based; settings: time 12.0 day
MDA-MB-231 [17] = test: Induction of apoptosis in human MDA-MB-231 cells assessed as late apoptotic cells at 2.5 to 10 uM incubated for 12 hrs by Annexin V-FITC/PI staining based flow cytometry (reference value: 2.46 %); format: functional; settings: dose 2.5-10 µM
MDA-MB-231 [18] = test: Induction of apoptosis in human MDA-MB-231 cells assessed as late apoptotic cells at 2.5 uM incubated for 12 to 48 hrs by Annexin V-FITC/PI staining based flow cytometry (reference value: 1.48 %); format: functional; settings: time 12-48 hrs
MDA-MB-231 [19] = test: Induction of apoptosis in human MDA-MB-231 cells assessed as viable cells at 2.5 to 10 uM incubated for 48 hrs by Annexin V-FITC/PI staining based flow cytometry (reference value: 94.8 %); format: functional; settings: dose 2.5-10 µM
MDA-MB-231 [20] = test: Induction of apoptosis in human MDA-MB-231 cells xenografted in BALB/c mouse assessed as increase in cleaved caspase-3 level at 20 mg/kg, ip qd for 12 days by Western blot analysis; format: functional, organism-based; settings: time 12.0 day
MDA-MB-231 [21] = test: Induction of apoptosis in human MDA-MB-231 cells assessed as viable cells at 2.5 uM incubated for 12 to 48 hrs by Annexin V-FITC/PI staining based flow cytometry (reference value: 97.0 %); format: functional; settings: time 12-48 hrs, read-out: Activity
MDA-MB-231 [22] = test: Induction of apoptosis in human MDA-MB-231 cells assessed as late apoptotic cells at 2.5 to 10 uM incubated for 24 hrs by Annexin V-FITC/PI staining based flow cytometry (reference value: 2.46 %); format: functional; settings: dose 2.5-10 µM
MDA-MB-231 [23] = test: Antiproliferative activity against human MDA-MB-231 cells incubated for 48 hrs by MTT assay; format: functional, cell-based; settings: MDA-MB-231, 48 h
MDA-MB-231 [24] = test: Induction of apoptosis in human MDA-MB-231 cells assessed as necrotic cells at 2.5 uM incubated for 12 to 48 hrs by Annexin V-FITC/PI staining based flow cytometry (reference value: 0.43 %); format: functional; settings: time 12-48 hrs
MDA-MB-231 [25] = test: Induction of apoptosis in human MDA-MB-231 cells assessed as increase in cleaved caspase-9 level at 2.5 to 10 uM incubated upto 48 hrs by Western blot analysis; format: functional, cell-based; settings: dose 2.5-10 µM
MDA-MB-231 [26] = test: Inhibition of cell migration in human MDA-MB-231 cells upto 10 uM incubated for 24 hrs by transwell assay; format: functional, cell-based
MDA-MB-231 [27] = test: Inhibition of cell proliferation of human MDA-MB-231 cells assessed as decrease in Ki-67 expression at 2.5 uM incubated for 24 hrs by immunofluorescence based analysis; format: functional
[28] = biological target: T2, von Hippel-Lindau disease tumor suppressor/Serine/threonine-protein kinase PAK 1; test: PROTAC activity at VHL/PAK1 in human MDA-MB-231 cells assessed as induction of protein degradation incubated for 48 hrs in presence of VHL by Western blot analysis; format: cell-based
Target sequence in this assay (Q13153 2-545 limits assumed): as the sequence (Q13153 2-545 limits assumed) above
Target sequence in this assay (P40337 whole entry partner): as the sequence (P40337 whole entry partner) above

[29] = biological target: T2, von Hippel-Lindau disease tumor suppressor/Serine/threonine-protein kinase PAK 1; test: PROTAC activity at VHL/PAK1 in human MDA-MB-231 cells assessed as induction of protein degradation at 2.5 uM incubated for 48 hrs by Western blot analysis relative to control; format: cell-based
Target sequence in this assay (Q13153 2-545 limits assumed): as the sequence (Q13153 2-545 limits assumed) above
Target sequence in this assay (P40337 whole entry partner): as the sequence (P40337 whole entry partner) above

MDA-MB-231 [30] = test: Induction of apoptosis in human MDA-MB-231 cells assessed as early apoptotic cells at 2.5 to 10 uM incubated for 24 hrs by Annexin V-FITC/PI staining based flow cytometry (reference value: 1.70 %); format: functional; settings: dose 2.5-10 µM
MDA-MB-231 [31] = test: Inhibition of 3D-spherioid formation of human MDA-MB-231 cells at 2.5 uM by crystal violet staining based colony formation assay; format: functional, cell-based
[32] = Toxicity in BALB/c mouse xenografted with human MDA-MB-231 cells assessed as body weight change at 20 mg/kg, ip qd for 12 days; format: organism-based; settings: in vivo, 288 h, time 12 day
MDA-MB-231 [33] = test: Antiproliferative activity against human MDA-MB-231 cells assessed as decrease in colony formation by crystal violet staining based analysis; format: functional, cell-based; settings: dose <= 10.0 µM

Q: With `Cc1ncsc1-c1ccc([C@H](C)NC(=O)[C@@H]2C[C@@H](O)CN2C(=O)[C@@H](NC(=O)CCc2cn(CCCCCCCn3c(=O)c(-c4ccc(Cl)cc4Cl)cc4cnc(NC5CC5)nc43)nn2)C(C)(C)C)cc1` as the compound, how does the inhibition [1] read?
A: Active

Q: And the Activity (MDA-MB-231 [2])?
A: Active

Q: And the Activity (MDA-MB-231 [3])?
A: Active

Q: What about the inhibition (MDA-MB-231 [4]) of the same compound?
A: Active

Q: And the Activity (MDA-MB-231 [5])?
A: Active

Q: And the inhibition [6]?
A: Active

Q: And the DC50 [7]?
A: 480 nM

Q: And the Activity ([7]; dose <= 200.0 µM)?
A: Dose-Dependent Effect

Q: What about the Activity (MDA-MB-231 [8]) of the same compound?
A: Active

Q: And the Activity (MDA-MB-231 [9])?
A: 1.74%

Q: And the Activity [10]?
A: Non-Toxic

Q: And the inhibition (MDA-MB-231 [11])?
A: Active

Q: And the Activity [12]?
A: 52.4%

Q: And the inhibition [13]?
A: Active

Q: What about the inhibition [14] of the same compound?
A: inactive

Q: And the Activity (MDA-MB-231 [15])?
A: 3.7%

Q: What about the Activity (MDA-MB-231 [16]) of the same compound?
A: Active

Q: What about the Activity (MDA-MB-231 [17]) of the same compound?
A: 5.67%

Q: What about the Activity (MDA-MB-231 [18]) of the same compound?
A: 8.21%

Q: And the Activity (MDA-MB-231 [19])?
A: 55.4%

Q: And the Activity (MDA-MB-231 [20])?
A: Active

Q: What about the viability at 2.5 µM (MDA-MB-231 [21]) of the same compound?
A: 84.8%

Q: And the Activity (MDA-MB-231 [22])?
A: 6.74%

Q: What about the IC50 (MDA-MB-231 [23]) of the same compound?
A: 1270 nM

Q: What about the Activity (MDA-MB-231 [24]) of the same compound?
A: 1.4%

Q: What about the Activity (MDA-MB-231 [25]) of the same compound?
A: Active

Q: And the inhibition (MDA-MB-231 [26])?
A: Active

Q: And the inhibition (MDA-MB-231 [27])?
A: Active

Q: And the Activity [28]?
A: inactive

Q: What about the Activity [29] of the same compound?
A: 71%

Q: And the Activity (MDA-MB-231 [30])?
A: 11.7%

Q: And the inhibition (MDA-MB-231 [31])?
A: Active

Q: And the Activity [32]?
A: Non-Toxic

Q: What about the Activity (MDA-MB-231 [33]) of the same compound?
A: Dose-Dependent Effect
